Data: ChEMBL document CHEMBL1201862, “PubChem BioAssay data set” (2004)
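Briefly, cells in 96-well plates were exposed to five compound concentrations for 48 h, and endpoints were estimated by linear interpolation. GI50 is the concentration that inhibits growth by half.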 Activity calls are given as the source filed them. Cut-off read from the data, not from the text of the source: active = GI50 up to about 1.1 µM and inactive = higher.

Key:
Assay in all cases: NCI tumour cell line growth inhibition, 48 h
SNB-19 = tested on: SNB-19
OVCAR-5 = tested on: OVCAR-5
NCI-H23 = tested on: NCI-H23
SF-539 = tested on: SF-539
TK-10 = tested on: TK-10
HOP-92 = tested on: HOP-92
HCT-15 = tested on: HCT-15
CCRF-CEM = tested on: CCRF-CEM
DLD-1 = tested on: DLD-1
MOLT-4 = tested on: MOLT-4
M14 = tested on: M14
786-0 = tested on: 786-0
HCT-116 = tested on: HCT-116
LOX IMVI = tested on: LOX IMVI
EKVX = tested on: EKVX
SF-295 = tested on: SF-295
HOP-18 = tested on: HOP-18
SK-MEL-28 = tested on: SK-MEL-28
KM12 = tested on: KM12
KM-20L2 = tested on: KM-20L2
SK-MEL-2 = tested on: SK-MEL-2
XF498 = tested on: XF498
SNB-75 = tested on: SNB-75
DMS-114 = tested on: DMS-114
A498 = tested on: A498
SR = tested on: SR
ACHN = tested on: ACHN
OVCAR-8 = tested on: OVCAR-8
SK-MEL-5 = tested on: SK-MEL-5
DMS-273 = tested on: DMS-273
NCI-H460 = tested on: NCI-H460
UACC-257 = tested on: UACC-257
IGROV-1 = tested on: IGROV-1
HOP-62 = tested on: HOP-62
UACC-62 = tested on: UACC-62
SNB-78 = tested on: SNB-78
M19-MEL = tested on: M19-MEL
U-251 = tested on: U-251
LXFL 529 = tested on: LXFL 529
CAKI-1 = tested on: CAKI-1
SF-268 = tested on: SF-268
OVCAR-4 = tested on: OVCAR-4
NCI-H522 = tested on: NCI-H522
HCC 2998 = tested on: HCC 2998
UO-31 = tested on: UO-31
K562 = tested on: K562
SN12C = tested on: SN12C
A549 = tested on: A549
OVCAR-3 = tested on: OVCAR-3
RXF 393 = tested on: RXF 393
SK-OV-3 = tested on: SK-OV-3
HT-29 = tested on: HT-29
COLO 205 = tested on: COLO 205
Malme-3M = tested on: Malme-3M
RPMI-8226 = tested on: RPMI-8226
NCI-H226 = tested on: NCI-H226
SW-620 = tested on: SW-620
HL-60 = tested on: HL-60

CC(C)(C)OC(=O)NC(CO)c1cccc(OCc2ccccc2)c1 (stereo not drawn)
GI50 (SNB-19): > 81.7 µM (inactive) | GI50 (OVCAR-5): > 100 µM (inactive) | GI50 (NCI-H23): > 65.5 µM (inactive) | GI50 (SF-539): > 100 µM (inactive) | GI50 (TK-10): > 82.6 µM (inactive) | GI50 (HOP-92): 22.1 µM (inactive) | GI50 (HCT-15): > 100 µM | GI50 (CCRF-CEM): 31.7 µM (inactive) | GI50 (DLD-1): > 100 µM (inactive) | GI50 (MOLT-4): 30.3 µM (inactive) | GI50 (M14): 41.9 µM (inactive) | GI50 (786-0): > 100 µM (inactive) | GI50 (HCT-116): > 65.2 µM (inactive) | GI50 (LOX IMVI): 49 µM (inactive) | GI50 (EKVX): 8.39 µM (inactive) | GI50 (SF-295): 63.4 µM (inactive) | GI50 (HOP-18): > 100 µM (inactive) | GI50 (SK-MEL-28): > 100 µM (inactive) | GI50 (KM12): > 100 µM (inactive) | GI50 (KM-20L2): > 100 µM (inactive) | GI50 (SK-MEL-2): > 100 µM (inactive) | GI50 (XF498): > 100 µM (inactive) | GI50 (SNB-75): > 100 µM (inactive) | GI50 (DMS-114): 23.1 µM (inactive) | GI50 (A498): > 87.9 µM (inactive) | GI50 (SR): 86.3 µM (inactive) | GI50 (ACHN): 71.4 µM (inactive) | GI50 (OVCAR-8): > 100 µM (inactive) | GI50 (SK-MEL-5): 28.2 µM (inactive) | GI50 (DMS-273): 53.2 µM (inactive) | GI50 (NCI-H460): 35.3 µM (inactive) | GI50 (UACC-257): 25.9 µM (inactive) | GI50 (IGROV-1): > 100 µM (inactive) | GI50 (HOP-62): > 82.4 µM (inactive) | GI50 (UACC-62): 33 µM (inactive) | GI50 (SNB-78): 83.4 µM (inactive) | GI50 (M19-MEL): > 89.7 µM (inactive) | GI50 (U-251): 94.6 µM (inactive) | GI50 (LXFL 529): > 100 µM (inactive) | GI50 (CAKI-1): > 100 µM (inactive) | GI50 (SF-268): > 100 µM (inactive) | GI50 (OVCAR-4): 99.8 µM (inactive) | GI50 (NCI-H522): 46 µM (inactive) | GI50 (HCC 2998): > 100 µM (inactive) | GI50 (UO-31): > 100 µM (inactive) | GI50 (K562): 36 µM (inactive) | GI50 (SN12C): > 100 µM (inactive) | GI50 (A549): 42.8 µM (inactive) | GI50 (OVCAR-3): > 100 µM (inactive) | GI50 (RXF 393): > 100 µM (inactive) | GI50 (SK-OV-3): > 100 µM (inactive) | GI50 (HT-29): > 100 µM (inactive) | GI50 (COLO 205): 47.3 µM (inactive) | GI50 (Malme-3M): 63 µM (inactive) | GI50 (RPMI-8226): 43.4 µM (inactive) | GI50 (NCI-H226): > 100 µM (inactive) | GI50 (SW-620): > 90.4 µM (inactive) | GI50 (HL-60): 13.9 µM (inactive)

O=C(Cc1ccccc1)NN1C(=O)C(Cl)C1c1cccc([N+](=O)[O-])c1 (stereo not drawn)
GI50 (SNB-19): > 92.9 µM (inactive) | GI50 (OVCAR-5): > 79.1 µM (inactive) | GI50 (NCI-H23): 26.4 µM (inactive) | GI50 (SF-539): 80 µM (inactive) | GI50 (TK-10): > 100 µM (inactive) | GI50 (HOP-92): 14 µM (inactive) | GI50 (HCT-15): 58.5 µM | GI50 (CCRF-CEM): 2.33 µM (inactive) | GI50 (DLD-1): 37.9 µM (inactive) | GI50 (MOLT-4): 12.4 µM (inactive) | GI50 (M14): 46.7 µM (inactive) | GI50 (786-0): 12.3 µM (inactive) | GI50 (HCT-116): 23.4 µM (inactive) | GI50 (LOX IMVI): 5.31 µM (inactive) | GI50 (EKVX): 34.8 µM (inactive) | GI50 (SF-295): > 100 µM (inactive) | GI50 (HOP-18): 31.3 µM (inactive) | GI50 (SK-MEL-28): > 92.9 µM (inactive) | GI50 (KM12): > 90.4 µM (inactive) | GI50 (KM-20L2): > 83.4 µM (inactive) | GI50 (SK-MEL-2): 31.7 µM (inactive) | GI50 (XF498): 31.2 µM (inactive) | GI50 (SNB-75): 0.729 µM (active) | GI50 (DMS-114): 28.5 µM (inactive) | GI50 (A498): > 100 µM (inactive) | GI50 (SR): 3.06 µM (inactive) | GI50 (ACHN): > 60.5 µM (inactive) | GI50 (OVCAR-8): 27.9 µM (inactive) | GI50 (SK-MEL-5): 39.9 µM (inactive) | GI50 (DMS-273): 36.5 µM (inactive) | GI50 (NCI-H460): 35.2 µM (inactive) | GI50 (UACC-257): 36.6 µM (inactive) | GI50 (IGROV-1): 4.18 µM (inactive) | GI50 (HOP-62): > 100 µM (inactive) | GI50 (UACC-62): 31.3 µM (inactive) | GI50 (SNB-78): > 71.8 µM (inactive) | GI50 (M19-MEL): 5.16 µM (inactive) | GI50 (U-251): 63.2 µM (inactive) | GI50 (LXFL 529): 14.2 µM (inactive) | GI50 (CAKI-1): 38.5 µM (inactive) | GI50 (SF-268): 44.7 µM (inactive) | GI50 (OVCAR-4): 29.8 µM (inactive) | GI50 (NCI-H522): 1.91 µM (inactive) | GI50 (HCC 2998): > 100 µM (inactive) | GI50 (UO-31): 31.7 µM (inactive) | GI50 (K562): 21.3 µM (inactive) | GI50 (SN12C): 38.8 µM (inactive) | GI50 (A549): > 100 µM (inactive) | GI50 (OVCAR-3): 43.4 µM (inactive) | GI50 (RXF 393): 25.6 µM (inactive) | GI50 (SK-OV-3): 90.6 µM (inactive) | GI50 (HT-29): 3.68 µM (inactive) | GI50 (COLO 205): > 100 µM (inactive) | GI50 (Malme-3M): > 78.5 µM (inactive) | GI50 (RPMI-8226): 16.6 µM (inactive) | GI50 (NCI-H226): > 42.9 µM (inactive) | GI50 (SW-620): 27.6 µM (inactive) | GI50 (HL-60): 10.4 µM (inactive)

Cc1nn2c(=O)n(-c3cccc(-n4nnc5c(-c6ccccc6)c(C)nn5c4=O)c3C)nnc2c1-c1ccccc1
GI50 (SNB-19): > 100 µM (inactive) | GI50 (OVCAR-5): > 100 µM (inactive) | GI50 (NCI-H23): 98.4 µM (inactive) | GI50 (SF-539): 24.4 µM (inactive) | GI50 (TK-10): 47.9 µM (inactive) | GI50 (HOP-92): 55.5 µM (inactive) | GI50 (HCT-15): 16.1 µM | GI50 (CCRF-CEM): 19.9 µM (inactive) | GI50 (DLD-1): 22.8 µM (inactive) | GI50 (MOLT-4): 11.1 µM (inactive) | GI50 (M14): 15.2 µM (inactive) | GI50 (786-0): 94.4 µM (inactive) | GI50 (HCT-116): 15.8 µM (inactive) | GI50 (LOX IMVI): 27.7 µM (inactive) | GI50 (EKVX): 38.9 µM (inactive) | GI50 (SF-295): 44.9 µM (inactive) | GI50 (HOP-18): 4.94 µM (inactive) | GI50 (KM12): > 10 µM (inactive) | GI50 (KM-20L2): 19.5 µM (inactive) | GI50 (SK-MEL-2): 3.33 µM (inactive) | GI50 (XF498): 20.9 µM (inactive) | GI50 (SNB-75): 37.4 µM (inactive) | GI50 (DMS-114): 13.8 µM (inactive) | GI50 (A498): 83.6 µM (inactive) | GI50 (SR): 12.9 µM (inactive) | GI50 (ACHN): 18.7 µM (inactive) | GI50 (OVCAR-8): 24.7 µM (inactive) | GI50 (SK-MEL-5): 16.6 µM (inactive) | GI50 (DMS-273): 66.8 µM (inactive) | GI50 (NCI-H460): 18.5 µM (inactive) | GI50 (UACC-257): 22.4 µM (inactive) | GI50 (IGROV-1): 22.4 µM (inactive) | GI50 (HOP-62): 97.7 µM (inactive) | GI50 (UACC-62): 46.1 µM (inactive) | GI50 (SNB-78): 82.2 µM (inactive) | GI50 (M19-MEL): 23.6 µM (inactive) | GI50 (U-251): 25.2 µM (inactive) | GI50 (LXFL 529): 24.7 µM (inactive) | GI50 (CAKI-1): 39.4 µM (inactive) | GI50 (SF-268): 46 µM (inactive) | GI50 (OVCAR-4): 15.6 µM (inactive) | GI50 (NCI-H522): 15.5 µM (inactive) | GI50 (HCC 2998): 20.5 µM (inactive) | GI50 (UO-31): 8.91 µM (inactive) | GI50 (K562): 20.1 µM (inactive) | GI50 (SN12C): 17.1 µM (inactive) | GI50 (A549): 33.3 µM (inactive) | GI50 (OVCAR-3): 6.95 µM (inactive) | GI50 (RXF 393): 34.6 µM (inactive) | GI50 (SK-OV-3): > 100 µM (inactive) | GI50 (HT-29): 35.7 µM (inactive) | GI50 (COLO 205): 17.5 µM (inactive) | GI50 (Malme-3M): 14.2 µM (inactive) | GI50 (RPMI-8226): 17.6 µM (inactive) | GI50 (NCI-H226): 45.3 µM (inactive) | GI50 (SW-620): 20.6 µM (inactive) | GI50 (HL-60): 18.2 µM (inactive)
